The record followed here is patent US20140294753A1, “NOVEL USE OF GANODERMIC ACIDS FOR TREATING CANCER” (DOUBLE CRANE BIOTECHNOLOGY CO. LTD, priority 2013, published 2014).

The subject of experiment [1] is HCT-116 cells. Put plainly: Wound healing assay (cell migration). The experiment is classed as cell-based, human. Conditions: up to 72 hrs. As for the experimental part: (§1) Wound healing assay is one of the earliest developed methods to study directional cell migration in vitro, by mimicking cell migration during wound healing in vivo. The basic steps involve creating a “wound” in a cell monolayer, capturing the images at the beginning and at regular intervals during cell migration to close the wound, and comparing the images to quantify the migration rate of the cells.
Briefly, the assay was carried out using IBIDI culture-inserts and 24-well plates (IBIDI GmbH, Martinsried, Germany). The culture-inserts were respectively placed into each well. Aliquots of […] containing 3×10^4 cells (PC-9, MDA-MB-231 or CL1-5 cells) were added into the two reservoirs of the same insert and incubated for 8 hrs, then the inserts were gently removed from each wells, then culture medium (500 μL, 10% FBS) containing GMAS (25 or 50 μM) or solvent vehicle (i.e., the control) was added to each well. The cells in the culture wells were photographed respectively at 0, 12, 24, 48 and 72 hrs using an inverted microscope. Finally, the migration area or the “wound” area was quantified by Metamorph software (Molecular Devices).
The effect of GMAS on the migration capability of colon cancer cells was assessed using the wound healing assay as described in the section of “Materials and Methods”. Results are illustrated in FIG. 3.

For experiment [2], the system named is human non-small cell lung cancer cell line PC-9. Briefly: Cell activity analysis (acid phosphatase, ACP). As to conditions: PC-9, 72 h, read-out: IC50 (50% cell activity inhibited).
Procedure: (§9) Each cell lines were cultured and maintained in Dulbecco's modified Eagle media (DMEM) supplemented with 1% fetal bovine serum (FBS), 100 IU/ml penicillin, 100 ng/ml streptomycin, 2 mM glutamine, non-essential amino acids and sodium pyruvate in 5% CO2 at 37° C. Cells were grown and maintained in Petri dishes (each was 10 cm in diameter) until reached 80% confluence, then were subject to cell passages. […] Collected the suspended cells, added 2 mL fresh culture media to neutralize any remaining activity of trypsin. Adjusted the cell density by adding appropriate amounts of culture medium to the cell suspension, which was then used to seed the culture plates. The plates were then returned to the incubator and cultured in accordance with the steps described above.
(§10) In operation, cultured cells in each well were washed with PBS (200 μl), then a reacting solution (100 μl) (10 mM p-NPP, 0.1 M sodium acetate, 0.1% Triton X-100, pH 5.5) was added and allowed to react with the cells for 30-40 min at 37° C. The reaction was subsequently stopped with a basic solution (10 μl, 0.1N NaOH). […]
For experiment [3], the system named is human colon carcinoma cell line HCT116. Briefly: Cell activity analysis (acid phosphatase, ACP). Format: cell-based. Conditions: Colon Cancer HCT-116, treated at least 48 hrs, read-out: IC50 (50% cell activity inhibited). As for the experimental part:
(§2) Cell lines used in the present disclosure include human lung adenocarcinoma cell line A549, human hepatocarcinoma cell line Huh7, human colon carcinoma cell line HCT116, human non-small cell lung cancer cell line PC-9, gefitinib-resistant human non-small cell lung cancer cell line PC-9 (PC9-IR), and human breast carcinoma cell line MDA-MB-231.
(§3) Each cell lines were cultured and maintained in Dulbecco's modified Eagle media (DMEM) supplemented with 1% fetal bovine serum (FBS), 100 IU/ml penicillin, 100 ng/ml streptomycin, 2 mM glutamine, non-essential amino acids and sodium pyruvate in 5% CO2 at 37° C. Cells were grown and maintained in Petri dishes (each was 10 cm in diameter) until reached 80% confluence, then were subject to cell passages. Briefly, cells were first washed with phosphate buffer solution (PBS, 3 ml) once, then treated with 0.05% Trypsin/0.025% EDTA solution (1 mL) for 5 min so that the attached cells become suspended. Collected the suspended cells, added 2 mL fresh culture media to neutralize any remaining activity of trypsin. Adjusted the cell density by adding appropriate amounts of culture medium to the cell suspension, which was then used to seed the culture plates. The plates were then returned to the incubator and cultured in accordance with the steps described above.
(§4) Cells were seeded in 96-well plates with a density of 3,000 cells/well and cultured in accordance with the procedures described above.
(§5) Acid Phosphatase analysis
(§6) Cell activity may be derived from the acid phosphatase (ACP) activity of a cell.
(§7) In operation, cultured cells in each well were washed with PBS (200 μl), then a reacting solution (100 μl) (10 mM p-NPP, 0.1 M sodium acetate, 0.1% Triton X-100, pH 5.5) was added and allowed to react with the cells for 30-40 min at 37° C. The reaction was subsequently stopped with a basic solution (10 μl, 0.1N NaOH). Adsorption at the wavelength of 405 nm was then measured, and the concentration that inhibited 50% cell activity (IC50) was derived from the absorbance measurement.
(§8) The effects of GMAS on various cancer cell lines, including colon cancer, hepatoma, breast cancer, and lung cancer, were respectively assessed by cell activity analysis using ACP activity as an indicator. Results are depicted in FIG. 1.

The subject of experiment [4] is human breast carcinoma cell line MDA-MB-231. Put plainly: Cell activity analysis (acid phosphatase, ACP). The experiment is classed as cell-based. Conditions: Breast Cancer MDA-MB-231, treated at least 48 hrs, read-out: IC50 (50% cell activity inhibited). As for the experimental part: as §2, §3, §4, §5, §6, §7, §8
Experiment [5] deals with human hepatocarcinoma cell line Huh7. Put plainly: Cell activity analysis (acid phosphatase, ACP). As to conditions: Hepatoma Huh-7, treated at least 48 hrs, read-out: IC50 (50% cell activity inhibited). Format: cell-based. As for the experimental part: as §2, §3, §4, §5, §6, §7, §8
For experiment [6], the system named is human lung adenocarcinoma cell line A549. Briefly: Cell activity analysis (acid phosphatase, ACP). The experiment is classed as cell-based. As to conditions: Lung Cancer A549, treated at least 48 hrs, read-out: IC50 (50% cell activity inhibited). As for the experimental part: as §2, §3, §4, §5, §6, §7, §8
Experiment [7] concerns PC-9 cells. Briefly: Wound healing assay (cell migration). As to conditions: 5 μM GMAS; lung cancer cells (PC-9, FIG. 4). The experiment is classed as cell-based, human. As for the experimental part: as §1
Briefly, the assay was carried out using IBIDI culture-inserts and 24-well plates (IBIDI GmbH, Martinsried, Germany). The culture-inserts were respectively placed into each well. Aliquots of […] containing 3×10^4 cells (PC-9, MDA-MB-231 or CL1-5 cells) were added into the two reservoirs of the same insert and incubated for 8 hrs, then the inserts were gently removed from each wells, then culture medium (500 μL, […]) or solvent vehicle (i.e., the control) was added to each well. The cells in the culture wells were photographed respectively at 0, 12, 24, 48 and 72 hrs using an inverted microscope. Finally, the migration area or the “wound” area was quantified by Metamorph software (Molecular Devices).

The subject of experiment [8] is gefitinib-resistant human non-small cell lung cancer cell line PC-9 (PC9-IR). Briefly: Cell activity analysis (acid phosphatase, ACP).
Procedure: as §9, §10

With `CC(=O)O[C@H]1CC[C@]2(C)C3=CC[C@]4(C)[C@@H]([C@H](C)CC/C=C(\C)C(=O)O)C[C@H](OC(C)=O)[C@@]4(C)C3=CC[C@H]2C1(C)C` [GMAS, ganodermic acid S], the “wound closing phenomenon (migration of colon cancer cells)” value in experiment [1] (25 μM GMAS) is “slightly inhibited”; in experiment [1] (50 μM GMAS), “significantly suppressed”. In addition, the IC50 is 56.1 µM in experiment [2]; 8 µM in experiment [3]; 20.4 µM in experiment [4]; 19.1 µM in experiment [5]; 7.9 µM in experiment [6]; 62.8 µM in experiment [8] (Homo sapiens, 72 h, read-out: IC50 (50% cell activity inhibited)). Besides, the “reduction of the migrated area as compared with control” value in experiment [7] stood at 50%. Also, the “Resistant Ratio (PC9-IR/PC9)” value in experiment [8] (IC50 of PC9-IR divided by IC50 of PC-9) came out at 1.1.

A word on the IC50: it is the concentration that gives 50% inhibition.
